Like-named read-outs stand apart in the source and are kept apart here.
Key:
human σ2/TMEM97 receptor = molecular target: T1, human σ2/TMEM97 receptor (Homo sapiens, UniProt Q5BJF2); test: Binding assay to human σ2/TMEM97 receptor ([3H]-DTG); conditions: transfected HEK-293 membranes, 10 nM [3H]-DTG, 25° C., 120 minutes; read-out: Binding σ-[…] (binding to σ2-receptor expressed as Ki)
T1 construct: expressed in transfected cells; host or cells: HEK-293
How it was run: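 Membranes from transfected HEK-293 cells incubated with 10 nM [3H]-DTG in 50 mM Tris-HCl pH 8.0, 120 min at 25 °C; non-specific binding defined with 10 μM haloperidol. Bound radioactivity counted after filtration; compounds tested as % inhibition at 1 or 10 μM or at five concentrations for Ki.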

human σ1 receptor = molecular target: T2, human σ1 receptor (Homo sapiens, UniProt Q99720); test: Human σ1 receptor radioligand assay ([3H](+)-pentazocine); assay type: binding
T2 construct: expressed in transfected cells; host or cells: HEK-293
How it was run: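 Binding used [3H](+)-pentazocine, 120 min at 37° C, with non-specific binding defined by 10 μM haloperidol. Bound radioligand was collected by filtration, washed with ice-cold 10 mM Tris-HCl pH 7.4 and counted by scintillation.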

[1] = transfected HEK-293 membranes, 5 nM [3H](+)-pentazocine, 37° C., 120 minutes, read-out: Binding σ-[…] (binding to σ1-receptor expressed as Ki)

T1 sequence (Q5BJF2 whole entry): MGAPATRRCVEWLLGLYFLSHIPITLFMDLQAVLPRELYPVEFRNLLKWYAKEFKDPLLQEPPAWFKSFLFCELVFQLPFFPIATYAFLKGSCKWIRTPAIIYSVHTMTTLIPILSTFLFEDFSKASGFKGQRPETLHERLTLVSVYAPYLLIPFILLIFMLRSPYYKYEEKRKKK
T2 sequence (Q99720 whole entry): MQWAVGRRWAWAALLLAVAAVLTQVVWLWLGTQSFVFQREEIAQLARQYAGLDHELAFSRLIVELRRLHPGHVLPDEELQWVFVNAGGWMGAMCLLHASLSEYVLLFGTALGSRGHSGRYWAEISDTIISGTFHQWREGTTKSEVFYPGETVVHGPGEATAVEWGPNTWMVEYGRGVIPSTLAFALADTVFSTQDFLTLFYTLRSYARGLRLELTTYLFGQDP

SMILES | Ki (human σ2/TMEM97 receptor) | Ki (human σ1 receptor; [1]) | Ki (human σ1 receptor)
CC1(C)CN(C(=O)N2CCC3(CCN(Cc4cc(C#N)c(F)cc4F)CC3)C2)c2cccnc21 [Example 158, 5-((2-(3,3-dimethyl-2,3-dihydro-1H-pyrrolo[3,2-b]pyridine-1-carbonyl)-2,8-diazaspiro[4.5]decan-8-yl)methyl)-2,4-difluorobenzonitrile] | < 100 nM | < 100 nM | 
Cc1ccc2c(n1)C(C)(C)CN2C(=O)NC[C@@H](c1ccccc1)N(C)C [Example 4, (R)—N-(2-(dimethylamino)-2-phenylethyl)-3,3,5-trimethyl-2,3-dihydro-1H-pyrrolo[3,2-b]pyridine-1-carboxamide] | > 1000 nM |  | < 100 nM
Cc1ccc2c(n1)CCN2C(=O)N1CCC(N(C)Cc2ccccc2)CC1 [Example 49] | 100 to 500 nM | 100 to 500 nM | 
CN(Cc1ccc(F)c(C#N)c1)C1CCN(C(=O)N2CC(C)(C)c3ncccc32)CC1 [Example 45, 5-(((1-(3,3-dimethyl-2,3-dihydro-1H-pyrrolo[3,2-b]pyridine-1-carbonyl)piperidin-4-yl)(methyl)amino)methyl)-2-fluorobenzonitrile] | < 100 nM | > 1000 nM | 
Cc1ccc2c(n1)C(C)(C)CN2C(=O)N1CCC2(CCN(Cc3ccncc3)CC2)C1 [Example 99, (8-(pyridin-4-ylmethyl)-2,8-diazaspiro[4.5]decan-2-yl)(3,3,5-trimethyl-2,3-dihydro-1H-pyrrolo[3,2-b]pyridin-1-yl)methanone] | < 100 nM | > 1000 nM | 
CN(Cc1ccccc1)C1CCN(C(=O)N2CC(C)(C)c3ncccc32)CC1 [Example 29, (4-(benzyl(methyl)amino)piperidin-1-yl)(3,3-dimethyl-2,3-dihydro-1H-pyrrolo[3,2-b]pyridin-1-yl)methanone] | < 100 nM | 100 to 500 nM | 
Cc1ccc2c(n1)C(C)(C)CN2C(=O)[C@H]1CC[C@@H](N(C)Cc2ccccc2)CC1 [Example 126, ((1s,4s)-4-(benzyl(methyl)amino)cyclohexyl)(3,3,5-trimethyl-2,3-dihydro-1H-pyrrolo[3,2-b]pyridin-1-yl)methanone] | < 100 nM | < 100 nM | 
CC1(C)CN(C(=O)N2CCC3(CCN(Cc4ccc(C#N)cc4)CC3)C2)c2cccnc21 [Example 151, 4-((2-(3,3-dimethyl-2,3-dihydro-1H-pyrrolo[3,2-b]pyridine-1-carbonyl)-2,8-diazaspiro[4.5]decan-8-yl)methyl)benzonitrile] | < 100 nM | < 100 nM | 
CN(CCc1ccccc1)[C@H]1CCCN(C(=O)N2CCc3ncccc32)C1 [Example 53, (S)-(2,3-dihydro-1H-pyrrolo[3,2-b]pyridin-1-yl)(3-(methyl(phenethyl)amino)piperidin-1-yl)methanone] | 100 to 500 nM | 100 to 500 nM | 
Cc1ccc2c(n1)C(C)(C)CN2C(=O)NC1CCN(Cc2ccc(F)c(F)c2)CC1 [Example 44, N-(1-(3,4-difluorobenzyl)piperidin-4-yl)-3,3,5-trimethyl-2,3-dihydro-1H-pyrrolo[3,2-b]pyridine-1-carboxamide] | > 1000 nM | < 100 nM | 
Cc1ccc2c(n1)C(C)(C)CN2C(=O)N1CCC[C@H](N(C)CCc2ccccc2)C1 [Example 54, (S)-(3-(methyl(phenethyl)amino)piperidin-1-yl)(3,3,5-trimethyl-2,3-dihydro-1H-pyrrolo[3,2-b]pyridin-1-yl)methanone] | < 100 nM |  | 100 to 500 nM
CC1(C)CN(C(=O)N2CCC3(CCN(Cc4ccccc4F)CC3)C2)c2cccnc21 [Example 141, (3,3-dimethyl-2,3-dihydro-1H-pyrrolo[3,2-b]pyridin-1-yl)(8-(2-fluorobenzyl)-2,8-diazaspiro[4.5]decan-2-yl)methanone] | < 100 nM | < 100 nM | 
Cc1ccc2c(n1)C(C)(C)CN2C(=O)N1CC[C@@H](N(C)Cc2ccccc2)C1 [Example 43, (R)-(3-(benzyl(methyl)amino)pyrrolidin-1-yl)(3,3,5-trimethyl-2,3-dihydro-1H-pyrrolo[3,2-b]pyridin-1-yl)methanone] | > 1000 nM | 500 to 1000 nM | 
Cc1ccc2c(n1)C(C)(C)CN2C(=O)[C@H]1CC[C@H](N(C)Cc2cccc(F)c2F)CC1 [Example 174, ((1r,4r)-4-((2,3-difluorobenzyl)(methyl)amino)cyclohexyl)(3,3,5-trimethyl-2,3-dihydro-1H-pyrrolo[3,2-b]pyridin-1-yl)methanone] | < 100 nM | < 100 nM | 
Cc1ccc2c(n1)CCN2C(=O)NC[C@@H](c1ccccc1)N(C)C [Example 6, (R)—N-(2-(dimethylamino)-2-phenylethyl)-5-methyl-2,3-dihydro-1H-pyrrolo[3,2-t]pyridine-1-carboxamide] | > 1000 nM | 500 to 1000 nM | 
CC(C)CCN1CCC(CNC(=O)N2CC(C)(C)c3ncccc32)CC1 [Example 106, N-((1-isopentylpiperidin-4-yl)methyl)-3,3-dimethyl-2,3-dihydro-1H-pyrrolo[3,2-b]pyridine-1-carboxamide] | 100 to 500 nM | 500 to 1000 nM | 
CC1(C)CN(C(=O)NC2CCN(Cc3cccc(F)c3)CC2)c2cccnc21 [Example 47, N-(1-(3-fluorobenzyl)piperidin-4-yl)-3,3-dimethyl-2,3-dihydro-1H-pyrrolo[3,2-b]pyridine-1-carboxamide] | > 1000 nM | < 100 nM | 
Cc1ccc2c(n1)C(C)(C)CN2C(=O)C1CCN(Cc2ccccc2)CC1 [Example 123, (1-benzylpiperidin-4-yl)(3,3,5-trimethyl-2,3-dihydro-1H-pyrrolo[3,2-b]pyridin-1-yl)methanone] | 500 to 1000 nM | < 100 nM | 
CC1(C)CN(C(=O)N2CCC3(CCN(Cc4c(F)cccc4F)CC3)C2)c2cccnc21 [Example 150, (8-(2,6-difluorobenzyl)-2,8-diazaspiro[4.5]decan-2-yl)(3,3-dimethyl-2,3-dihydro-1H-pyrrolo[3,2-b]pyridin-1-yl)methanone] | 100 to 500 nM | > 1000 nM | 
CC1(C)CN(C(=O)N2CCC3(CCN(Cc4ccc(F)cc4)CC3)C2)c2cccnc21 [Example 149, (3,3-dimethyl-2,3-dihydro-1H-pyrrolo[3,2-b]pyridin-1-yl)(8-(4-fluorobenzyl)-2,8-diazaspiro[4.5]decan-2-yl)methanone] | < 100 nM | < 100 nM | 
Cc1ccc2c(n1)C(C)(C)CN2C(=O)N1CCC(N(C)Cc2ccc(F)c(C#N)c2)CC1 [Example 60, 2-fluoro-5-((methyl(1-(3,3,5-trimethyl-2,3-dihydro-1H-pyrrolo[3,2-b]pyridine-1-carbonyl)piperidin-4-yl)amino)methyl)benzonitrile] | < 100 nM | 100 to 500 nM | 
CN(C)C(CNC(=O)N1CC(C)(C)c2nc(C(F)(F)F)ccc21)c1ccccc1 (stereo not drawn) [Example 3, N-(2-(dimethylamino)-2-phenylethyl)-3,3-dimethyl-5-(trifluoromethyl)-2,3-dihydro-1H-pyrrolo[3,2-b]pyridine-1-carboxamide] | > 1000 nM | 100 to 500 nM | 
Cc1ccc2c(n1)C(C)(C)CN2C(=O)N1CCC2(CC1)CN(Cc1ccccc1)C2 [Example 93, (2-benzyl-2,7-diazaspiro[3.5]nonan-7-yl)(3,3,5-trimethyl-2,3-dihydro-1H-pyrrolo[3,2-b]pyridin-1-yl)methanone] | 100 to 500 nM | 100 to 500 nM | 
CN(CCc1ccccc1)[C@H]1CCN(C(=O)N2CCc3ncccc32)C1 [Example 62, (S)-(2,3-dihydro-1H-pyrrolo[3,2-b]pyridin-1-yl)(3-(methyl(phenethyl)amino)pyrrolidin-1-yl)methanone] | 500 to 1000 nM | > 1000 nM | 
Cc1ccc2c(n1)C(C)(C)CN2C(=O)N1CCC(N(C)Cc2ccc(F)cc2)CC1 [Example 114, (4-((4-fluorobenzyl)(methyl)amino)piperidin-1-yl)(3,3,5-trimethyl-2,3-dihydro-1H-pyrrolo[3,2-b]pyridin-1-yl)methanone] | < 100 nM | 100 to 500 nM | 
CC1(C)CN(C(=O)N2CCC3(CCN(Cc4ccc(C#N)cc4F)CC3)CC2)c2cccnc21 [Example 165, 4-((9-(3,3-dimethyl-2,3-dihydro-1H-pyrrolo[3,2-b]pyridine-1-carbonyl)-3,9-diazaspiro[5.5]undecan-3-yl)methyl)-3-fluorobenzonitrile] | < 100 nM | < 100 nM | 
CN(Cc1ccc(C#N)cc1)C1CCN(C(=O)N2CC(C)(C)c3ncccc32)CC1 [Example 84, 4-(((1-(3,3-dimethyl-2,3-dihydro-1H-pyrrolo[3,2-b]pyridine-1-carbonyl)piperidin-4-yl)(methyl)amino)methyl)benzonitrile] | < 100 nM | 100 to 500 nM | 
COc1ccc(C(CNC(=O)N2CC(C)(C)c3nc(C)ccc32)N(C)C)cc1 (stereo not drawn) [Example 13, N-(2-(dimethylamino)-2-(4-methoxyphenyl)ethyl)-3,3,5-trimethyl-2,3-dihydro-1H-pyrrolo[3,2-b]pyridine-1-carboxamide] | > 1000 nM |  | < 100 nM
CN(C)[C@@H](CNC(=O)N1CC(C)(C)c2nc(C#N)ccc21)c1ccccc1 [Example 15, (R)-5-cyano-N-(2-(dimethylamino)-2-phenylethyl)-3,3-dimethyl-2,3-dihydro-1H-pyrrolo[3,2-b]pyridine-1-carboxamide] | > 1000 nM |  | < 100 nM
CN(Cc1ccc(F)cc1)C1CCN(C(=O)N2CC(C)(C)c3ncccc32)CC1 [Example 86, (3,3-dimethyl-2,3-dihydro-1H-pyrrolo[3,2-b]pyridin-1-yl)(4-((4-fluorobenzyl)(methyl)amino)piperidin-1-yl)methanone] | < 100 nM | 500 to 1000 nM | 

Source: patent US20240174671A1, “New 2,3-Dihydro-1H-pyrrolo[3,2-b]pyridine Derivatives as Sigma Ligands” (ACONDICIONAMIENTO TARRASENSE, priority 2021, published 2024)
